Patent publication US20110313015A1, “Fludioxonil Derivatives” (Bayer CropScience AG, priority 2010, published 2011)

Tested on: common bent (Agrostis capillaris)
Assay: Herbicidal early post-emergence action (microtitre plate, visual assessment of damage)
Format: in vivo
Details: application rate 1900 g/ha, assessed after 10 days vs untreated controls, 100% = plants have died, 0% = like control plants
Experimental: Seeds of mono- and dicotyledonous harmful plants are, in a microtitre plate, placed into sand. The compounds according to the invention, formulated as emulsion concentrates (EC), are then applied as an aqueous emulsion using spray nozzles adapted to the uHTVS to the germinated plants. After the treatment, the microtitre plates are placed in a climatized chamber and kept under good growth conditions for the test plants. The visual assessment of the damage to the test plants is carried out after a trial period of 10 days by comparison with untreated controls (herbicidal activity in percent (%): 100% activity=the plants have died, 0% activity=like control plants).

Question: `COC(=O)CCn1cc(C#N)c(-c2cccc3c2OC(F)(F)O3)c1` [No. 1] was tested. Which herbicidal activity did it give?
Answer: 100%
